From article PMC8757871, “Bridging the Antimicrobial Activity of Two Lactoferricin Derivatives in E. coli and Lipid-Only Membranes” (Frontiers in Medical Technology, 2021)

System: E. coli K12 5K
Test: ζ-potential estimate of the maximum number of surface-adsorbed AMPs
Type: cell-based, Escherichia coli
Settings: for fraction of cell associated peptides that do not enter inner compartments: at bacteria inhibition levels of 10%; for NPmax/NB, ratio of surface-adsorbed to cell-partitioned AMPs (upper boundary): at the MIC
Procedure: DLS and ζ-potential measurements were carried out with a Zetasizer Nano ZSP (Malvern Panalytical, Malvern, UK). E. coli suspensions were incubated with a given AMP concentration at 37°C for 1 h prior to each measurement. […] Control samples (no AMPs) were suspended and incubated in buffer alone. […] Because of the high conductivity of PBS, the electrode voltage was set to 4 V for ζ-potential measurements to keep currents below 1 mA. Further, measurements were paused for 180 s between individual runs. This prevented Joule heating leading to sample denaturation and electrode blackening. Experiments were repeated three times on different preparations, each consisting of at least six measurements. Reported ζ-potential values are given by the median of the corresponding measurements (i.e., from at least 18 values) and errors were derived using the median absolute deviations.
Remembering that ζ-potential values are sensitive only to the charges exposed to the outside of any particle, including bacteria, we can obtain upper boundaries for the number of surface adsorbed peptides. Given the high abundance of lipopolysaccharides (LPS) in the outer leaflet (about 70–90 vol%) of Gram-negative bacteria, as compared to other charged lipid species such as PG and CL (<2 vol%) and membrane proteins (7–20 vol%) ([40]), it is justified to assume that LPS dominates the surface potential of E. coli. Then, following considerations put forth for peptides partitioning in liposomes ([31], [41]), the ratio of ζ-potential values in the presence and absence of AMPs is […]
(9) ζ/ζ0≈σ/σ0≃(S0/S)∑iNizi+NPzP/NLPS0zLPS, where (σ, σ0) and (S, S0) are the corresponding surface charge densities and cell surface areas, respectively. Further, NLPS0 is the initial number of LPS molecules in the outer leaflet, with a nominal charge zLPS ≃ −6 ([42]); NP is the number of surface adsorbed AMPs of nominal charge zP ≃ +5 ([20]); and ∑iNizi=NLPSzLPS+NPGzPG+NCLzCL considers anionic lipids that translocate into the outer leaflet due to AMP activity ([3], [6], [18]). This term also accounts for a possible loss of LPS molecules in the outer leaflet due to vesiculation processes ([25]). Note that Equation (9) is only valid for |ζ| ≤ 25 mV, in which range ζ ∝ σ ([43]). […] Rearranging Equation (9) leads to […]
(13) NPmax/NLPS0≈(zLPS/zP)(ζ/ζ0-1), where NPmax is the upper boundary of surface adsorbed peptides. […] For example, using DLS, we measured a hydrodynamic diameter of E. coli K12 2RH = 980 ± 30 nm, from which we calculate S0≃4.5×10^6 nm^2, approximating the bacteria's shape with a cylinder of radius r and length l using RH2≃r^2/2+l^2/12 and r ~ 400 nm ([47]). […]

Substance | fraction of cell associated peptides that do not enter inner compartments | NPmax/NB, ratio of surface-adsorbed to cell-partitioned AMPs (upper boundary)
H-PFFWRIRIRR-NH2 [LF11-324, H-PFFWRIRIRR-NH2] | ~ 18% | ~5%
H-FWRIRIRR-NH2 [LF11-215, H-FWRIRIRR-NH2] | ~ 5% | about 1%
